Measurements from article PMC3263330 (2011).
Changes are numbered by the printed parent chain.

Columns and labels:
[1] = molecular target: T1, aryl hydrocarbon receptor (mAhR) (Mus musculus, UniProt P30561, S359A); assay: [3H]TCDD specific binding, hydroxyapatite assay
T1 sequence (P30561 10-848 S359A): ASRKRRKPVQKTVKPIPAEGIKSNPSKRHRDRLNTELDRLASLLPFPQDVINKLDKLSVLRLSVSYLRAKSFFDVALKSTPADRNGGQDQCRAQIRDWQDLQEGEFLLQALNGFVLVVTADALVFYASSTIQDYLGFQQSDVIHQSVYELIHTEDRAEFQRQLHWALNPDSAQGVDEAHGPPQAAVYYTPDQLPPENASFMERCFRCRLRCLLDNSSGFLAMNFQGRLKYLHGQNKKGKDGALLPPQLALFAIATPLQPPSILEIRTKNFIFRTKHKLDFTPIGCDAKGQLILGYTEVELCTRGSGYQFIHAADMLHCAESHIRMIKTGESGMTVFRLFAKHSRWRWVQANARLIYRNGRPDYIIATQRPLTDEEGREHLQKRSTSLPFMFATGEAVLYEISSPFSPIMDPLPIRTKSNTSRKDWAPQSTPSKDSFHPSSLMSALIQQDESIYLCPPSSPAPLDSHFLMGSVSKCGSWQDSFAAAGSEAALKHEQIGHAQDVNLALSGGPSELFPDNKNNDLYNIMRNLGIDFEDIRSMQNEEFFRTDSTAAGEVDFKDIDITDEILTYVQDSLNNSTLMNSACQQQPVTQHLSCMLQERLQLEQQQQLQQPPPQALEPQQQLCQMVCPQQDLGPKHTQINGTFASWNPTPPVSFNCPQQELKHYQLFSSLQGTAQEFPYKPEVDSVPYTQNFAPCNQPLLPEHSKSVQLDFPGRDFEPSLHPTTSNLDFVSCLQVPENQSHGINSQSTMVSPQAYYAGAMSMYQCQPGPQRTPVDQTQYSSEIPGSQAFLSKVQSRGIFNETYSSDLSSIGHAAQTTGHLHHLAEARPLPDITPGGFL

[2] = molecular target: T2, aryl hydrocarbon receptor (mAhR) (Mus musculus, UniProt P30561); assay: [3H]TCDD; format: binding
T2 sequence (P30561 10-848): T1 sequence (P30561 10-848 S359A) with A350S

[3] = molecular target: T2, aryl hydrocarbon receptor (mAhR); assay: competitive [3H]TCDD hydroxyapatite radioligand binding assay; conditions: read-out: Experimental IC50 (M), in vitro synthesized mAhR

Q: Which “% reduction of binding vs wild type” value [1] does the source give for `Clc1cc2c(cc1Cl)Oc1cc(Cl)c(Cl)cc1O2` [TCDD, 2,3,7,8-tetrachlorodibenzo-p-dioxin] here?
A: ~ 40 % reduction of binding vs wild type

Q: And the “[3H]TCDD (2 nM) specific binding, hydroxyapatite assay” value [2]?
A: THS compounds displace [^3H]TCDD from the in vitro synthesized AhR in concentration-dependent manner.

Q: Which IC50 [3] does the source give for `O=[N+]([O-])c1cc(C(F)(F)F)ccc1NCc1ccco1` [THS-020] here?
A: 4.2e-06 M
